# From patent publication US12636291B2, “Compositions and methods relating to use of agonists of ALPHA5-containing GABAA receptors” (Centre for Addiction and Mental Health, priority 2019, dated 2026)
# Columns and labels:
# [1] = test system: cultured pyramidal neurons; assay: Morphology of cultured GFP-expressing pyramidal neurons after acute treatment; assay type: cell-based, mouse; settings: 1 μM, 24 hrs, vs vehicle (0.01% DMSO); FIG. 11A-B; initial data
# Procedure: Transgenic mice were generated to express a fluorescent protein (GFP) only in pyramidal neurons. Embryos were collected at E17, and brain homogenates were plated and cultured under suitable conditions for neuronal growth. Following 2 weeks of incubation and growth, the compound GL-II-73 (1 μM) or vehicle was applied and left for 24 hrs. Isolated cells were then used to image the entire neuron and visualize dendrites and spines on a single neuron.
# old mice = assay: Spontaneous alternation in the Y-Maze (working memory), normal aging; assay type: in vivo, mouse; settings: GL-II-73 in drinking water 8 weeks (30 mg/kg) vs old mice vehicle (52.6%; young 79.6%), p=0.01
# From the text: The percentage of alternation during the Y maze test can be considered as an index of working memory performance (50% of alternation corresponding to a random alternation rate). […] ANOVA analysis indicates a significant difference between all groups (F(2;25)=11.34; p=0.0003).
# Animals: For the experiments described above, young (n=11, age 2 months) and old male mice (N=23) were purchased from Charles River. Old mice were obtained at the age of 9-10 months and were kept in the animal facility until they reached the age of 22 months. Young mice (2 months old) were purchased when old mice had already reached the age of 22 months. All animals were single housed. Experiments were performed on mice aged 2 months (“young”) or 22 months (“old”) at the beginning of the experimental protocol. The second set of experiments with the Washout group included 8 young mice and 22 old mice. Old mice were split into 3 groups of 7-8 between “Old”, “Old-treated” and “Old-Washout”. Finally, the pilot with the 5×FAD mice was performed with 15 heterozygote 5×FAD mice, bred in the animal facility of the Centre for Addiction and Mental Health, Toronto (ON, Canada). […]
# Spontaneous alternation in the Y-Maze: Mice were tested in a Y maze test as an assessment of working memory. […] The alternation rate was calculated and was expressed as a percentage: […]
structure (smiles),measurement,setting,value
"C#Cc1ccc2c(c1)C(c1ccccc1F)=N[C@H](C)c1c(C(=O)N(C)C)ncn1-2 (stereo in doubt) [GL-II-73, 8-ethynyl-6-(2-fluorophenyl)-N,N,4-trimethyl-4H-benzo[f]imidazo[1,5-a][1,4]diazepine-3-carboxamide]",dendritic length,[1],longer dendrites
same,spine density (spines),[1],more spines
same,alternation rate in the Y maze test,old mice,higher alternation rate than old mice receiving only vehicle
